Laboratory results as given in US10752612B2, “PLK4 inhibitors” (LUDWIG INSTITUTE FOR CANCER RESEARCH LTD, priority 2015, dated 2020).

Legend:
RPE1 cells = test: Passaging assay and flow cytometry, RPE1; type: cell-based, human; conditions: RPE1, addition Day 0, washout Day 8
Description: Passaging assays. Cells were seeded into 10 cm tissue culture plates at 150,000 (HeLa, NIH/3T3 and RPE1) or 200,000 cells/plate (primary fibroblasts). Compounds were added at the indicated concentrations. At 4-day intervals, cells were harvested, counted using a TC10 cell counter, and re-seeded into new plates at the densities above. Results are from 2 independent experiments.
Flow cytometry. Cells were seeded into 15 cm tissue culture plates such that each plate was 50-80% confluent at the time of harvesting. Cells were de-adhered by trypsinization and pelleted in 15 ml tubes by centrifugation. Each pellet was resuspended in 0.3 mL PBS, and 0.7 mL ice-cold 100% ethanol was added to the tube while gently vortexing. Fixed cells were stored at 4° C. for up to 2 weeks. For DNA content analysis, fixed cells were pelleted, washed twice with PBS, and resuspended in 0.5 mL PBS+2% BSA and Alexa488-conjugated anti-p-H3(Ser10) antibody. Samples were incubated for 1 hour at 4° C., then washed twice with PBS+2% BSA. Pellets were resuspended in 1 mL PBS+2% BSA, 10 μg/ml propidium iodide (Sigma-Aldrich), 500 µg/ml RNAse A (Thermo Scientific). Samples were incubated at 37° C. for 30 minutes, then transferred to 12×75 mm tubes for analysis. Data were acquired using FACSDiva software on a LSR II flow cytometer (BD Biosciences). 50,000 cells were analyzed per condition. Cell cycle fitting was performed using ModFit LT (Verity Software House).

p53 = test: Western blotting, RPE1; type: cell-based, human
Description: Western blotting. […] Cell extracts were stored at −80° C. until use.
For p53, p-p53(S33), p-p53(S392), p-p38(T180/Y182), acetyl-p53(K382), LATS2, YAP, MDM2, MAPKAPK-2 and GFP, blocking and antibody incubations were performed in TBS-T+5% non-fat dry milk. For p-YAP(S127), p-p53(S9), p-p53(S15), p-p53(S20), p-p53(S37), p-p53(S315), p21 and p-MAPKAPK-2(T334), blocking and antibody incubations were performed in TBS-T+5% BSA. Detection was performed using HRP-conjugated secondary antibodies (GE Healthcare) with WesternBright Sirius (Advansta) or SuperSignal West Femto (Thermo Scientific) substrates. Membranes were imaged on a ChemiDoc MP system (Bio-Rad). Membranes were stripped and reprobed with antibodies against α-tubulin or GAPDH as loading controls.

CCOc1cc(C(C)(C)C)ccc1C1=N[C@@](C)(c2ccc(Cl)cc2)[C@@](C)(c2ccc(Cl)cc2)N1C(=O)N1CCN(CCCS(C)(=O)=O)CC1 [R7112]
proliferation after washout (RPE1 cells): led to resumption of proliferation
p53 levels (p53): raised p53 levels
